Measured values reported in PMC10126514, “The interaction of peptide inhibitors and Aβ protein: Binding mode analysis, inhibition of the formation of Aβ aggregates, and then exert neuroprotective effects” (Frontiers in Aging Neuroscience, 2023).
“Also recorded” adds a separate entry of the source. Residues, ends and D or L forms follow the SMILES beside them.

Tests used:
Aβ1–42 aggregation = assay: ThT fluorescence, inhibition of Aβ1–42 aggregation; type: biochemical, Human; settings: for ThT fluorescence intensity vs Aβ group: PBS, ex 440/em 480 nm
Procedure: ThT is a chemical fluorescent dye. […] Based on this fluorescence phenomenon, ThT is used as a kind of fluorescent indicator to detect the degree of aggregation of Aβ.
Take about 10 μL of the sample, dilute it 20 times with ThT solution, and read the fluorescence intensity value with a microplate reader, 440 nm is the excitation wavelength, and 480 nm is the emission wavelength, and the bandwidth is 5 nm. […] The sample was repeated five times and the average value was taken.

PC12 cells [1] = type: cell-based, Rat
Procedure: Pipette the cultured cells in a cell culture flask repeatedly to make them evenly distributed. Use a pipete to pipete 10 μL of cell suspension and transfer to a cell counting plate for counting. Count under a microscope to calculate the number of living cells distributed in a large square composed of 16 squares on the cytometer. Cell density (pcs / mL) = (sum of cell count/4) × 10^4 Calculate the cell concentration, repeat counting 2–3 times for each sample (the value should not be too different each time, otherwise the operation should be repeated). If there are less than 5 cells in each large square, you need to re-centrifuge to adjust the cell concentration.
Use CCK-8 kit to detect cell viability, reflecting the cytotoxicity of peptide inhibitors themselves. The counted PC12 cells were plated at 100 μL/well (8 × 10^4 cells/well). After put the 96-well plate at 37°C for 12 h, discard the medium, add 100 μL of medium containing different concentrations of peptide inhibitors to each well, and continue to culture 24 h. […] The wells with DMEM medium solution containing no peptide inhibitors but containing cells were used as the control group.
Cell Viability(%)=ODadministration group−[…]ODcontrol group−ODblank group×100%

Aβ1–42 = molecular target: T1, Aβ1–42 (Homo sapiens, UniProt P05067); assay: SPR affinity of peptide and Aβ1–42; type: binding; settings: for Binding phase of SPR kinetic curve / Dissociation phase of SPR kinetic curve / Binding ability ranking by KD: qualitative, SPR
T1 construct: purchased GL Biochem Ltd. (Shanghai)
T1 sequence (P05067 672-713 limits assumed): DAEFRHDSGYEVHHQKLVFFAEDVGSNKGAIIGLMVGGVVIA
Procedure: Surface Plasmon Resonance (SPR) is a sensitive surface analysis technique that detects changes in dielectric constant caused by molecules adsorbed on heavy metal films. In this study, the 1-(3-Dimethylaminopropyl)-3-ethylcarbodiimide hydrochloride (EDC) and N-Hydroxy succinimide (NHS) in the coupling kit were, respectively, dissolved in 1 mL of activation buffer, divided into 10 parts, 100 μL/part, and stored at −20°C for later use. Before the experiment, first install the CM5 chip in the machine and wash it with HBS-EP buffer 3 times. […] After the experiment is over, use the Evaluation software to analyze the results, and use Flow Cell2 to subtract the background signal of channel 1 as the experimental result. The 1:1 binding method is used for fitting calculation and analysis of affinity parameters: binding rate constant ka (1/Ms), dissociation rate constant kd (1/s) and equilibrium dissociation constant KD (M), KD = kd/ ka, the smaller the KD value, the stronger the affinity.

Aβ1–42 oligomerization = settings: ref Takahashi and Mihara, 2008, cited from earlier work
Text: (§1) In recent years, through the emergence of peptides that inhibit the aggregation of Aβ, extensive research has been conducted on peptides for the treatment of Alzheimer’s disease. However, these peptides have high specificity and low toxicity, which will make them candidate drugs for peptide inhibitors against Aβ aggregation ([Fosgerau and Hoffmann, 2015]). Peptides designed by computer simulation and applied to Alzheimer’s disease are becoming more and more popular and welcomed by researchers. At present, the peptide inhibitors of Aβ aggregation include LVFF, KLVFF, KLVFF modified peptide (QKL ...

[2] = system: rat primary cortical neurons; design: method as in Pradhan et al., 2019; settings: ref Pradhan et al., 2019; cited from earlier work
Aβ aggregation = settings: cited from earlier work; for Aβ aggregation and toxicity: ref Cheng et al., 2012
Text: as §1

apoptosis caused by Aβ = settings: ref Hadipour et al., 2020; cited from earlier work
Text: Abnormally precipitated Aβ in amyloid plaques becomes one of the hallmark proteins of brain nerve damage in AD patients, and promotes the deterioration of AD. The accumulation of Aβ protein is caused by the interaction between the hydrophobic center and the C-terminal molecule ([Kapadia et al., 2021]). At present, the development of anti-Aβ aggregation compounds is a promising approach in the treatment of AD, and many clinical trials are ongoing.

PC12 cells [3] = settings: CCK-8, co-incubated with Aβ1–42 72 h
Procedure: Rat adrenal pheochromocytoma (PC12) cells were donated by Zhengzhou University School of Basic Medicine (#CRL-1721; RRID: CVCL-0481) in DMEM containing 10% fetal bovine serum, 1% penicillin and 1% streptomycin, culture in a cell incubator with 5% CO2 and 37°C, and passage once every 3 days.
Add 10 μL of CCK-8 solution to each well and continue to incubate for 2 h. Add 10 μL of CCK-8 solution to each well and continue to incubate for 2 h. The wells with normal DMEM medium and cell solution were used as the control group. The wells with 100 μL DMEM medium and 10 μL CCK-8 solution but no cells were used as the blank control, and the absorbance was measured at 450 nm.

PC12 cells [4] = settings: cited from earlier work
Text: Abnormally precipitated Aβ in amyloid plaques becomes one of the hallmark proteins of brain nerve damage in AD patients, and promotes the deterioration of AD. The accumulation of Aβ protein is caused by the interaction between the hydrophobic center and the C-terminal molecule ([Kapadia et al., 2021]). At present, the development of anti-Aβ aggregation compounds is a promising approach in the treatment of AD, and many clinical trials are ongoing. […] However, these peptides have high specificity and low toxicity, which will make them candidate drugs for peptide inhibitors against Aβ aggregation ([Fosgerau and Hoffmann, 2015]). Peptides designed by computer simulation and applied to Alzheimer’s disease are becoming more and more popular and welcomed by researchers. At present, the peptide inhibitors of Aβ aggregation include LVFF, KLVFF, KLVFF modified peptide (QKL ...

[5] = peptide 50 μM, Aβ1–42 25 μM, 37°C, 24 h, ThT
[6] = peptide 50 μM, Aβ1–42 25 μM, 37°C, 24 h, n = 5 mean

## CC(=O)N[C@@H](Cc1ccc(O)cc1)C(=O)N[C@H](C(=O)N[C@@H](CCCNC(=N)N)C(=O)N[C@@H](Cc1c[nH]cn1)C(=O)N[C@@H](CO)C(=O)N[C@H](C(=O)N[C@@H](Cc1ccc(O)cc1)C(=O)N[C@H](C(=O)N[C@@H](CCCNC(=N)N)C(=O)N[C@@H](Cc1c[nH]cn1)C(=O)N[C@@H](CO)C(=O)N[C@H](C(N)=O)C(C)C)C(C)C)C(C)C)C(C)C [P11] (Ac-YVRHSVYVRHSV-NH2)
Aβ1–42 aggregation; [5]
  Inhibitory effect on Aβ aggregation: certain inhibitory ability on Aβ aggregation
Aβ1–42 aggregation; [6]
  ThT fluorescence intensity vs Aβ group: decreased, but the difference was not statistically significant (p > 0.05)
PC12 cells [1]
  Cell viability at 3.125 μM: cell viability began to decrease significantly at low concentration (3.125 μM) of P11 (p < 0.05)
Aβ1–42
  Kd: 20.5 µM
  Binding phase of SPR kinetic curve: the curve rises steadily, and it takes a long time to reach saturation
  Dissociation phase of SPR kinetic curve: relatively slow in the dissociation phase

## CC(=O)N[C@@H](Cc1ccc(O)cc1)C(=O)N[C@H](C(=O)N[C@@H](CCCNC(=N)N)C(=O)N[C@@H](Cc1c[nH]cn1)C(=O)N[C@@H](Cc1c[nH]cn1)C(=O)N[C@@H](Cc1c[nH]cn1)C(=O)N[C@@H](Cc1ccc(O)cc1)C(=O)N[C@H](C(=O)N[C@@H](CCCNC(=N)N)C(=O)N[C@@H](Cc1c[nH]cn1)C(=O)N[C@@H](Cc1c[nH]cn1)C(=O)N[C@@H](Cc1c[nH]cn1)C(N)=O)C(C)C)C(C)C [P9] (Ac-YVRHHHYVRHHH-NH2)
Aβ1–42 aggregation; [5]
  Inhibitory effect on Aβ aggregation: no inhibitory effect on Aβ aggregation
Aβ1–42 aggregation; [6]
  ThT fluorescence intensity vs Aβ group: increased, but the difference is not statistically significant (p > 0.05)
PC12 cells [1]
  Cell viability at 6.25 μM: began to decrease significantly (p < 0.05)
  Cell viability at 25, 50, 100 and 200 μM: decreased significantly, with extremely significant differences (p < 0.01)
Aβ1–42
  Kd: 14 µM
  Binding ability ranking by KD: the weakest
  Binding phase of SPR kinetic curve: the curve rises steadily, and it takes a long time to reach saturation
  Dissociation phase of SPR kinetic curve: relatively slow in the dissociation phase

## Ac-KQKLLLFLEE-NH2
Aβ1–42 oligomerization; co-assembles with mature Aβ1–42 fibrils
  Aβ1–42 oligomerization: effectively inhibit Aβ1–42 oligomerization
Aβ1–42 oligomerization
  Self-assembly: form amyloid fibrils

## Ser-Leu-Lys-Pro [SLKP, tetrapeptide]
[2]
  Neurite growth: promoted significant neurite growth
  Neuroprotection against Aβ-mediated toxicity: significant neuroprotection against Aβ-mediated toxicity

## LFFFAED [amyloid β-sheet mimics ; LFFFAED (Aβ17–23)]
Aβ aggregation
  Aβ aggregation and toxicity: antagonizing Aβ protein aggregation and reducing Aβ toxicity

## CC(C)=CCC/C(C)=C/CC/C(C)=C/CC/C(C)=C/CC1=C(C)C(=O)c2ccccc2C1=O [vitamin K2]
Apoptosis caused by Aβ
  Apoptosis caused by Aβ accumulation: significantly reduced
  Ratio of Bax/Bcl-2: decreased

## CC(=O)N[C@@H](Cc1ccc(O)cc1)C(=O)N[C@H](C(=O)N[C@@H](CCCNC(=N)N)C(=O)N[C@@H](Cc1c[nH]cn1)C(=O)N[C@@H](CC(=O)O)C(=O)N[C@@H](CC(C)C)C(=O)N[C@@H](Cc1ccc(O)cc1)C(=O)N[C@H](C(=O)N[C@@H](CCCNC(=N)N)C(=O)N[C@@H](Cc1c[nH]cn1)C(=O)N[C@@H](CC(=O)O)C(=O)N[C@@H](CC(C)C)C(N)=O)C(C)C)C(C)C [P12] (Ac-YVRHDLYVRHDL-NH2)
Aβ1–42 aggregation; [5]
  Inhibitory effect on Aβ aggregation: no inhibitory effect on Aβ aggregation
Aβ1–42 aggregation; [6]
  ThT fluorescence intensity vs Aβ group: increased, but the difference is not statistically significant (p > 0.05)
PC12 cells [1]
  Cell viability at 6.25 μM: significant effect on the viability of PC12 cells at 6.25 μM (p < 0.05)
Aβ1–42
  Kd: 0.327 µM
  Binding ability ranking by KD: the strongest
  Binding phase of SPR kinetic curve: rises rapidly at the beginning of binding and reaches saturation in a short time
  Dissociation phase of SPR kinetic curve: the curve drops rapidly and the dissociation is completed

## CC(=O)N[C@@H](Cc1ccc(O)cc1)C(=O)N[C@H](C(=O)N[C@@H](CCCNC(=N)N)C(=O)N[C@@H](Cc1c[nH]cn1)C(=O)N[C@@H](CC(C)C)C(=O)N[C@@H](CCCCN)C(=O)N[C@@H](Cc1ccc(O)cc1)C(=O)N[C@H](C(=O)N[C@@H](CCCNC(=N)N)C(=O)N[C@@H](Cc1c[nH]cn1)C(=O)N[C@@H](CC(C)C)C(=O)N[C@@H](CCCCN)C(N)=O)C(C)C)C(C)C [P21] (Ac-YVRHLKYVRHLK-NH2)
PC12 cells [3]; after ratio 1:1, increasing P21 (1:2, 1:4)
  Cell viability at ratios above 1:1 (1:2, 1:4): cell viability continued to increase
PC12 cells [3]; ratio 1:4
  Cell viability at ratio 1:4: reaching the maximum at 1:4, which was close to the normal level
Aβ1–42 aggregation; incubated with Aβ1–42 at a ratio of 1:1, ThT, listed as YVRHLKYVRHLK
  Inhibitory effect on formation of Aβ1–42 aggregates at ratio 1:1: significant inhibitory effect on the formation of Aβ1–42 aggregates when incubated with Aβ1–42 at a ratio of 1:1 (p < 0.05)
Aβ1–42 aggregation; [5]
  Inhibitory effect on Aβ aggregation: strong inhibitory ability on Aβ aggregation; also recorded: good inhibitory effect on the protein aggregation of Aβ1–42
Aβ1–42 aggregation; peptide 50 μM, Aβ1–42 25 μM, 37°C, 24 h, ThT, n = 5 mean, Aβ alone = 100% fluorescence
  Inhibition of Aβ1–42 aggregation: 100%
Aβ1–42 aggregation; [6]
  ThT fluorescence intensity vs Aβ group: significantly lower than that of the Aβ group (p < 0.05)
PC12 cells [1]
  Cell viability at 25 μM: significantly reduced at 25 μM (p < 0.05)
  Toxicity to PC12 cells at 50 μM: less toxic to PC12 cells at a concentration of 50 μM
Aβ1–42
  Kd: 53.8 µM
  Binding phase of SPR kinetic curve: rises rapidly at the beginning, but slowly reaches saturation in the following time, and the binding rate is faster
  Dissociation phase of SPR kinetic curve: dissociates relatively quickly

## CC(C)=CCC[C@@H](C)[C@H]1CC[C@@]2(C)C3=C(CC[C@]12C)[C@@]1(C)CC[C@H](O)C(C)(C)[C@@H]1CC3 [lanosterol]
PC12 cells [4]; ref Zhou et al., 2019
  Aβ-induced cytotoxicity in PC12 cells: reduce the Aβ-induced cytotoxicity in PC12 cells

## KLVFFAE [amyloid β-sheet mimics ; KLVFFAE (Aβ16–22)]
Aβ aggregation
  Aβ aggregation and toxicity: antagonizing Aβ protein aggregation and reducing Aβ toxicity

## QKLVFF
Aβ aggregation; ref Findeis et al., 1999
  Formation of Aβ fibers: inhibiting the formation of Aβ fibers

## H2N-KLVFF (4-I) -CONH2 [iodinated KLVFF]
Aβ aggregation; 10 μM peptide, 10 μM Aβ, 1:1, ref Khalili Samani and Mofid, 2020
  Anti-aggregation activity vs other halogenated peptides: show the best resistance compared to other halogenated peptides

## pituitary adenylate cyclase activating polypeptide [PACAP]
PC12 cells [4]; ref Onoue et al., 2002
  Aβ-induced cell death in PC12 cells: attenuates Aβ-induced cell death in PC12 cells by increasing cAMP
  Caspase-3: inactivation of apoptotic factor (caspase-3)
